Source: US20140323534A1, “USES OF 3'-DESFERRITHIOCIN ANALOGS” (University of Florida Research Foundation, Inc., priority 2011, published 2014)
Read-outs that look alike come from different tables or passages of the source. Blank lines part the entries; values can stand above or below the compound they belong to.

Experiments:
[1] = Concentration of DFT analogs in rat plasma and cerebrospinal fluid after oral (PO) and subcutaneous (SC) doses; assay type: in vivo, Sprague-Dawley rats; details: rats, monosodium salt; for concentration at 0.5 h / concentration at 1 h / concentration at 2 h / concentration at 4 h / concentration at 8 h: male, Sprague-Dawley, rat; for concentration at 8 h / Concentration in plasma: 8 h
Description: The DFT analogs useful in the inventive methods were converted from the free acid form to the monosodium salt form. Water followed by one equivalent of sodium hydroxide was added to the DFT analog as a free acid. The resulting slurry was vortexed or sonicated until the DFT analog went into solution. More water was added, and the solution was vortexed or sonicated again. The formed yellow solution, having a pH about 7, was used as a sample solution in the following examples. It is preferred that a fresh sample solution of the DFT analog is made shortly before the solution is used in an assay.
Adult male Sprague-Dawley rats (450-500 g) were used. The rats were not fasted. A sample solution of a monosodium salt of (S)-3′-(HO)-DADFT-norPE (II-A) or (S)-3′-(HO)-DADFT-PE (III-A) was administered to the rats at an oral or subcutaneous dose of 300 μmol/kg. Concentrations of the DFT analogs in the plasma and cerebrospinal fluid of the rats were measured at 0.5 hour, 1 hour, 2 hours, 4 hours, and 8 hours post administration.

[2] = LogPapp of DFT analogs; assay type: physicochemical
[3] = test system: acetic acid-induced colitis in rats; test: Prevention of acetic acid-induced colitis in a rat model; assay type: in vivo, Sprague-Dawley rats; details: FIG. 1: 20 mg/kg IV 30 minutes before the 4% acetic acid
[4] = cerebrospinal fluid, 300 μmol/kg SC, read-out: Concentration in cerebrospinal fluid
[5] = plasma, 300 μmol/kg SC, read-out: Concentration in plasma
[6] = cerebrospinal fluid, 300 μmol/kg PO, read-out: Concentration in cerebrospinal fluid
[7] = plasma, 300 μmol/kg PO, read-out: Concentration in plasma

concentration at 0.5 h ([1]; cerebrospinal fluid, 300 μmol/kg SC, 0.5 h, read-out: Concentration in cerebrospinal fluid): 0 µM | concentration at 1 h [1, 4]: 0 µM | concentration at 2 h [1, 4]: 0 µM | concentration at 4 h [1, 4]: 0 µM | concentration at 8 h ([1]; cerebrospinal fluid, 300 μmol/kg SC): 0 nM | concentration at 0.5 h ([1]; plasma, 300 μmol/kg SC, 0.5 h, read-out: Concentration in plasma): 77 ± 10 µM | concentration at 1 h [1, 5]: 66 ± 5 µM | concentration at 2 h [1, 5]: 44 ± 2 µM | concentration at 4 h [1, 5]: 7 ± 1 µM | Concentration in plasma ([1]; 300 μmol/kg SC): trace | LogPapp [2]: −0.93
Structure (SMILES): COCCOCCOc1cccc(C2=N[C@@](C)(C(=O)O)CS2)c1O [II-A]

Structure (SMILES): CC(=O)N(O)CCCCCNC(=O)CCC(=O)N(O)CCCCCNC(=O)CCC(=O)N(O)CCCCCN [DFO, desferrioxamine]
Effect on acetic acid-induced colitis [3]: prevent acetic acid-induced colitis

concentration at 1 h [1, 6]: 0 µM | concentration at 2 h [1, 6]: 0 µM | concentration at 4 h [1, 6]: 0 µM | concentration at 8 h ([1]; cerebrospinal fluid, 300 μmol/kg PO): 0 nM | concentration at 0.5 h ([1]; plasma, 300 μmol/kg PO, 0.5 h, read-out: Concentration in plasma): 62 ± 24 µM | concentration at 1 h [1, 7]: 46 ± 3 µM | concentration at 2 h [1, 7]: 24 ± 5 µM | concentration at 4 h [1, 7]: 13 ± 2 µM | Concentration in cerebrospinal fluid ([1]; 300 μmol/kg PO, 0.5 h): trace | Concentration in plasma ([1]; 300 μmol/kg PO): trace | LogPapp [2]: −1.22
Structure (SMILES): COCCOCCOCCOc1cccc(C2=N[C@@](C)(C(=O)O)CS2)c1O [III-A]
